A word on the inhibition: it is the relative decrease from the control value, in per cent.

The values below come from patent US8158628B2, “Sulfonylated 1,2,3,4-tetrahydropyrrolo[1,2-a]pyrazine compounds and their use as pharmaceuticals” (Gruenenthal GmbH, priority 2009, dated 2012).

The target in one test is T1, B1R of the rat (Rattus norvegicus, UniProt P97583).
T1 construct: expressed in transfected cells; host or cells: CHO K1 cells (Chinese hamster ovary), stably transfected
T1 sequence (P97583 1-337): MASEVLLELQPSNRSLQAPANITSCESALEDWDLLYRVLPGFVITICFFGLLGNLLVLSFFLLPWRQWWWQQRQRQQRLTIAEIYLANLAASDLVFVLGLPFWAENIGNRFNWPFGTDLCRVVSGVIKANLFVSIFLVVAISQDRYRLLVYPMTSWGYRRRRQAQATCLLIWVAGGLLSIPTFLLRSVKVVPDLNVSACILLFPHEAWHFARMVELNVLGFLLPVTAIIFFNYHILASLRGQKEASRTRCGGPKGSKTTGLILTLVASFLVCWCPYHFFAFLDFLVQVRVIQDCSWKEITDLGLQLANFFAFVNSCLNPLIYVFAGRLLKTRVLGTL
The test can be described thus: FLIPR Ca2+ functional assay, B1R antagonism, rat B1R in CHO K1 cells. In kind it is cell-based. Conditions: test substance 10 μM; rB1R CHO K1 cells; agonist Des-Arg9 bradykinin at EC80; % of maximum achievable inhibition. An outline of the steps: (§1)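 IC50 values come from varied compound concentrations applied 10-20 min before an EC80 agonist challenge, with Des-Arg9 bradykinin for rat and Lys-Des-Arg9 bradykinin for human receptor. Ca2+ influx in Fluo-4-loaded CHO K1 transfectants was measured by FLIPR peak fluorescence. Data are % inhibition vs maximum, n=2-3, N>=2.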

Another test deals with T2, human B1R (Homo sapiens, UniProt P46663).
T2 construct: expressed in transfected cells; host or cells: CHO K1 cells (Chinese hamster ovary), stably transfected
T2 sequence (P46663 1-353): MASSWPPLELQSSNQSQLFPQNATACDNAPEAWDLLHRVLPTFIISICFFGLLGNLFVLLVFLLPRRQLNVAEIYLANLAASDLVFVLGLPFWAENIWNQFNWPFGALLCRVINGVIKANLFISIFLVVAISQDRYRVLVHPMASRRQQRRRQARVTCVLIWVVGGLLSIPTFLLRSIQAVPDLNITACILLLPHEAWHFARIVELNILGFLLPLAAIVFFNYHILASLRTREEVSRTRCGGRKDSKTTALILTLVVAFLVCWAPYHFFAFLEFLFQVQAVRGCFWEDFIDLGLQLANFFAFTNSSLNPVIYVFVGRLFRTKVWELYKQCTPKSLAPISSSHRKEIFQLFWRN
The test can be described thus: FLIPR Ca2+ functional assay, B1R antagonism, human B1R in CHO K1 cells. In kind it is cell-based. Conditions: test substance 10 μM; hB1R CHO K1 cells; agonist Lys-Des-Arg9 bradykinin at EC80; % of maximum achievable inhibition. In outline:
as §1

Regarding `Cc1ccc(S(=O)(=O)N2CCn3cccc3C2CC(=O)NC2CCc3cc(CN4CCCc5ccccc54)ccc3C2)cc1` (stereo not shown) [Example 79, 2-[2-(p-Tolylsulfonyl)-1,2,3,4-tetrahydro-pyrrolo[1,2-a]pyrazin-1-yl]-N-[6-(1,2,3,4-tetrahydro-quinolin-1-yl-methyl)-1,2,3,4-tetrahydro-naphthalen-2-yl]-acetamide], the inhibition at 10 µM at B1R of the rat stood at 99.3%; at human B1R it was 57.9%.
The like results for `COc1cc(C)c(S(=O)(=O)N2CCn3cccc3C2COCC(=O)N(C)C2CCN(c3ccncc3)CC2)c(C)c1` (stereo not shown) [Example 39, 2-[[2-[(4-Methoxy-2,6-dimethyl-phenyl)sulfonyl]-1,2,3,4-tetrahydro-pyrrolo[1,2-a]pyrazin-1-yl]-methoxy]-N-methyl-N-(1-pyridin-4-yl-piperidin-4-yl)-acetamide] were, in that order, 105% and 99.6%.
The like results for `COc1ccc2cc(S(=O)(=O)N3CCn4cccc4C3CC(=O)NC3CCCc4cc(CN5CCOCC5)ccc43)ccc2c1` (stereo not shown) [Example 120, 2-[2-[(6-Methoxy-naphthalen-2-yl)sulfonyl]-1,2,3,4-tetrahydro-pyrrolo[1,2-a]pyrazin-1-yl]-N-[6-(morpholin-4-yl-methyl)-1,2,3,4-tetrahydro-naphthalen-1-yl]-acetamide] were, in that order, 102% and 97.8%.
Taken in the same sequence, the figures for `O=C(COCC1c2cccn2CCN1S(=O)(=O)c1ccccc1C(F)(F)F)N1CCC2(CC1)CCN(c1ccncc1)C2` (stereo not shown) [Example 21, 1-(2-(Pyridin-4-yl)-2,8-diazaspiro[4.5]decan-8-yl)-2-((2-(2-(trifluoromethyl)phenylsulfonyl)-1,2,3,4-tetrahydropyrrolo[1,2-a]pyrazin-1-yl)methoxy)ethanone] were 113% and 100%.
For the molecule `COc1ccc2cc(S(=O)(=O)N3CCn4cccc4C3CC(=O)NCCc3ccc(C4=NCCN4)cc3)ccc2c1` (stereo not shown) [Example 41, N-[2-[4-(4,5-Dihydro-1H-imidazol-2-yl)-phenyl]-ethyl]-2-[2-[(6-methoxy-naphthalen-2-yl)sulfonyl]-1,2,3,4-tetrahydro-pyrrolo[1,2-a]pyrazin-1-yl]-acetamide], the inhibition at 10 µM stood at 103% at B1R of the rat and 100% on human B1R.
Regarding `COc1cc(C)c(S(=O)(=O)N2CCn3cccc3C2COCC(=O)N2CCC(Cc3ccncc3)CC2)c(C)c1` (stereo not shown) [Example 35, 2-[[2-[(4-Methoxy-2,6-dimethyl-phenyl)sulfonyl]-1,2,3,4-tetrahydro-pyrrolo[1,2-a]pyrazin-1-yl]-methoxy]-1-[4-(pyridin-4-yl-methyl)-piperidin-1-yl]-ethanone], the results for the inhibition at 10 µM at B1R of the rat and on human B1R were 101% and 97.7%, respectively.
The like results for `O=C(CC1c2cccn2CCN1S(=O)(=O)c1cccc(Cl)c1)NC1CCc2cc(CN3CCCCC3)ccc2C1` (stereo not shown) [Example 47, 2-(2-(3-chlorophenylsulfonyl)-1,2,3,4-tetrahydropyrrolo[1,2-a]-pyrazin-1-yl)-N-(6-(piperidin-1-ylmethyl)-1,2,3,4-tetrahydronaphthalen-2-yl)-acetamide] were, in that order, 106% and 99.9%.
The like results for `Cc1ccc(S(=O)(=O)N2CCn3cccc3C2CC(=O)NC2CCCc3cc(CN4CCOCC4)ccc32)cc1` (stereo not shown) [Example 54, N-[6-(Morpholin-4-yl-methyl)-1,2,3,4-tetrahydro-naphthalen-1-yl]-2-[2-(p-tolylsulfonyl)-1,2,3,4-tetrahydro-pyrrolo[1,2-a]pyrazin-1-yl]-acetamide] were, in that order, 100% and 99%.
Take `COc1ccc2cc(S(=O)(=O)N3CCn4cccc4C3CC(=O)NC3CCCc4cc(CNCc5ccccc5)ccc43)ccc2c1` (stereo not shown) [Example 100, N-[6-[(Benzylamino)-methyl]-1,2,3,4-tetrahydro-naphthalen-1-yl]-2-[2-[(6-methoxy-naphthalen-2-yl)sulfonyl]-1,2,3,4-tetrahydro-pyrrolo[1,2-a]pyrazin-1-yl]-acetamide]: the values for the inhibition at 10 µM on B1R of the rat and at human B1R were 103% and 99.8%, respectively.
Take `COc1ccc2cc(S(=O)(=O)N3CCn4cccc4C3CC(=O)NC3CCCc4cc(CN5CCCC5)ccc43)ccc2c1` (stereo not shown) [Example 98, 2-[2-[(6-Methoxy-naphthalen-2-yl)sulfonyl]-1,2,3,4-tetrahydro-pyrrolo[1,2-a]pyrazin-1-yl]-N-[6-(pyrrolidin-1-yl-methyl)-1,2,3,4-tetrahydro-naphthalen-1-yl]-acetamide]: the inhibition at 10 µM was determined as 99.7% at B1R of the rat and 99.9% at human B1R.
As to `COc1ccc2cc(S(=O)(=O)N3CCn4cccc4C3CC(=O)NC3CCCc4cc(CN(C)C)ccc43)ccc2c1` (stereo not shown) [Example 106, N-[6-(Dimethylaminomethyl)-1,2,3,4-tetrahydro-naphthalen-1-yl]-2-[2-[(6-methoxy-naphthalen-2-yl)sulfonyl]-1,2,3,4-tetrahydro-pyrrolo[1,2-a]pyrazin-1-yl]-acetamide], the inhibition at 10 µM on B1R of the rat is 101%; on human B1R, 100%.
